In the supplement of paper PMC4932681:

Legend:
T-47D Tam2 [1] = assay: drug sensitivity score (DSS) (DSS (dimensionless)); higher = more sensitive; extreme values may be limits of the assay; details: 4-OH-tamoxifen in medium 1 µM; 72 h
Method in brief: (§1)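 Breast cancer cell lines and their resistant derivatives were seeded into 384-well plates holding FO2Baq library drugs at five concentrations spanning a 10 000-fold range. Resistant lines were in medium with 1 μM of the selecting drug. Cells were incubated 72 h at 37 °C, and CellTiter-Glo viability was read on a PHERAstar and normalised to vehicle-only and positive controls. Drug sensitivity score, relative IC50 (curve midpoint) and top-dose inhibition came from logistic dose–response fits (Breeze pipeline).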

T-47D [2] = assay: as above; details: 72 h
Method in brief: as §1

T-47D Tam1 [3] = assay: as above; details: 4-OH-tamoxifen in medium 1 µM; 72 h
Method in brief: as §1

BT-474 Tam1 [4] = assay: as above; details: 4-OH-tamoxifen in medium 1 µM; 72 h
Method in brief: as §1

BT-474 [5] = assay: as above; details: 72 h
Method in brief: as §1

MCF-7 Tam1 [6] = assay: as above; details: 4-OH-tamoxifen in medium 1 µM; 72 h
Method in brief: as §1

MCF-7 [7] = assay: as above; details: 72 h
Method in brief: as §1

BT-474 Tam2 [8] = assay: as above; details: 4-OH-tamoxifen in medium 1 µM; 72 h
Method in brief: as §1

ZR-75-1 Tam1 [9] = assay: as above; details: 4-OH-tamoxifen in medium 1 µM; 72 h
Method in brief: as §1

ZR-75-1 [10] = assay: as above; details: 72 h
Method in brief: as §1

ZR-75-1 Tam2 [11] = assay: as above; details: 4-OH-tamoxifen in medium 1 µM; 72 h
Method in brief: as §1

T-47D Tam2 [12] = assay: relative IC50 (midpoint of fitted logistic curve, plateau may be below 50% inhibition; CellTiter-Glo viability); higher = less potent; details: 4-OH-tamoxifen in medium 1 µM; 72 h
Method in brief: as §1

T-47D [13] = assay: as above; details: 72 h
Method in brief: as §1

T-47D Tam1 [14] = assay: as above; details: 4-OH-tamoxifen in medium 1 µM; 72 h
Method in brief: as §1

BT-474 Tam1 [15] = assay: as above; details: 4-OH-tamoxifen in medium 1 µM; 72 h
Method in brief: as §1

BT-474 [16] = assay: as above; details: 72 h
Method in brief: as §1

MCF-7 Tam1 [17] = assay: as above; details: 4-OH-tamoxifen in medium 1 µM; 72 h
Method in brief: as §1

MCF-7 [18] = assay: as above; details: 72 h
Method in brief: as §1

BT-474 Tam2 [19] = assay: as above; details: 4-OH-tamoxifen in medium 1 µM; 72 h
Method in brief: as §1

ZR-75-1 Tam1 [20] = assay: as above; details: 4-OH-tamoxifen in medium 1 µM; 72 h
Method in brief: as §1

ZR-75-1 [21] = assay: as above; details: 72 h
Method in brief: as §1

ZR-75-1 Tam2 [22] = assay: as above; details: 4-OH-tamoxifen in medium 1 µM; 72 h
Method in brief: as §1

Compound | relative IC50 (T-47D Tam2 [12]) | relative IC50 (T-47D [13]; 4-OH-tamoxifen in medium 0 µM) | relative IC50 (T-47D [13]; 4-OH-tamoxifen in medium 1 µM) | relative IC50 (T-47D Tam1 [14]) | relative IC50 (BT-474 Tam1 [15]) | relative IC50 (BT-474 [16]; 4-OH-tamoxifen in medium 0 µM) | relative IC50 (BT-474 [16]; 4-OH-tamoxifen in medium 1 µM) | relative IC50 (MCF-7 Tam1 [17]) | relative IC50 (MCF-7 [18]; 4-OH-tamoxifen in medium 0 µM) | relative IC50 (MCF-7 [18]; 4-OH-tamoxifen in medium 1 µM) | relative IC50 (BT-474 Tam2 [19]) | drug sensitivity score (T-47D Tam2 [1]) | drug sensitivity score (T-47D [2]; 4-OH-tamoxifen in medium 0 µM) | drug sensitivity score (T-47D [2]; 4-OH-tamoxifen in medium 1 µM) | drug sensitivity score (T-47D Tam1 [3]) | drug sensitivity score (BT-474 Tam1 [4]) | drug sensitivity score (BT-474 [5]; 4-OH-tamoxifen in medium 0 µM) | drug sensitivity score (BT-474 [5]; 4-OH-tamoxifen in medium 1 µM) | drug sensitivity score (MCF-7 Tam1 [6]) | drug sensitivity score (MCF-7 [7]; 4-OH-tamoxifen in medium 0 µM) | drug sensitivity score (MCF-7 [7]; 4-OH-tamoxifen in medium 1 µM) | drug sensitivity score (BT-474 Tam2 [8]) | drug sensitivity score (ZR-75-1 Tam1 [9]) | drug sensitivity score (ZR-75-1 [10]; 4-OH-tamoxifen in medium 0 µM) | drug sensitivity score (ZR-75-1 [10]; 4-OH-tamoxifen in medium 1 µM) | drug sensitivity score (ZR-75-1 Tam2 [11]) | relative IC50 (ZR-75-1 Tam1 [20]) | relative IC50 (ZR-75-1 [21]; 4-OH-tamoxifen in medium 0 µM) | relative IC50 (ZR-75-1 [21]; 4-OH-tamoxifen in medium 1 µM) | relative IC50 (ZR-75-1 Tam2 [22])
COc1cc2c(N3CCN(C(=O)Nc4ccc(OC(C)C)cc4)CC3)ncnc2cc1OCCCN1CCCCC1 [Tandutinib] | > 1000 nM | > 1000 nM | > 1000 nM | > 1000 nM | > 1000 nM | > 1000 nM | > 1000 nM | > 1000 nM | > 1000 nM | > 1000 nM | > 1000 nM | 0 | 0 | 0 | 0 | 0 | 0 | 0 | 0 | 0 | 0 | 0 | 0 | 0 | 0 | 0 | > 1000 nM | > 1000 nM | > 1000 nM | > 1000 nM
C=CCNC1=C2C[C@@H](C)C[C@H](OC)[C@H](O)[C@@H](C)/C=C(\C)[C@H](OC(N)=O)[C@@H](OC)/C=C\C=C(/C)C(=O)NC(=CC1=O)C2=O [Tanespimycin  (17-AAG)] | 2180 nM | 1550 nM | 939 nM | 1640 nM | 27.4 nM | 42.2 nM | 42.4 nM | 444 nM | 61.5 nM | 65.6 nM | 38.6 nM | 3.1 | 5.17 | 5.11 | 3.79 | 24 | 17.1 | 24 | 4.15 | 19.2 | 13.9 | 23.1 | 7.79 | 8.45 | 9.57 | 11.6 | 284 nM | 74.5 nM | 141 nM | 118 nM
Oc1ncc(N(CCCl)CCCl)c(O)n1 [Uracil mustard] | > 10000 nM | > 10000 nM | > 10000 nM | > 10000 nM | > 10000 nM | > 10000 nM | > 10000 nM | > 10000 nM | > 10000 nM |  | > 10000 nM | 0 | 0 | 0 | 0 | 0 | 0 | 0 | 0 | 0 | 0.208 | 0 | 0 | 0 | 0 | 0 | > 10000 nM | > 10000 nM | > 10000 nM | > 10000 nM
CCc1c(C(=O)C(N)=O)c2c(OCC(=O)O)cccc2n1Cc1ccccc1 [Varespladib] | > 10000 nM | > 10000 nM | > 10000 nM | > 10000 nM | > 10000 nM | > 10000 nM | > 10000 nM | > 10000 nM |  | > 10000 nM | > 10000 nM | 0 | 0 | 0 | 0 | 0 | 0 | 0 | 0 | 0.0495 | 0 | 0 | 0 | 0 | 0 | 0 | > 10000 nM | > 10000 nM | > 10000 nM | > 10000 nM
C[C@]1(c2nc3c(C(N)=O)cccc3[nH]2)CCCN1 [Veliparib  (ABT-888)] | > 10000 nM | > 10000 nM | > 10000 nM | > 10000 nM | > 10000 nM | > 10000 nM | > 10000 nM | > 10000 nM | > 10000 nM | > 10000 nM | > 10000 nM | 0 | 0 | 0 | 0 | 0 | 0 | 0 | 0 | 0 | 0 | 0 | 0 | 0 | 0 | 0 | > 10000 nM | > 10000 nM | > 10000 nM | > 10000 nM
O=P(O)(O)C(O)(Cn1ccnc1)P(=O)(O)O [Zoledronic acid] | > 10000 nM | > 10000 nM | > 10000 nM | > 10000 nM | > 10000 nM | > 10000 nM | > 10000 nM | > 10000 nM | > 10000 nM | > 10000 nM | > 10000 nM | 0 | 0 | 0 | 0 | 0 | 0 | 0 | 0 | 0 | 0 | 0 | 0 | 0 | 0 | 0 | > 10000 nM | > 10000 nM | > 10000 nM | > 10000 nM

Further lines, with some results ahead:

relative IC50 (T-47D Tam2 [12]) | relative IC50 (T-47D [13]; 4-OH-tamoxifen in medium 0 µM) | relative IC50 (T-47D [13]; 4-OH-tamoxifen in medium 1 µM) | relative IC50 (T-47D Tam1 [14]) | relative IC50 (BT-474 Tam1 [15]) | relative IC50 (BT-474 [16]; 4-OH-tamoxifen in medium 0 µM) | relative IC50 (BT-474 [16]; 4-OH-tamoxifen in medium 1 µM) | relative IC50 (MCF-7 Tam1 [17]) | relative IC50 (MCF-7 [18]; 4-OH-tamoxifen in medium 0 µM) | relative IC50 (MCF-7 [18]; 4-OH-tamoxifen in medium 1 µM) | relative IC50 (BT-474 Tam2 [19]) | Compound | drug sensitivity score (T-47D Tam2 [1]) | drug sensitivity score (T-47D [2]; 4-OH-tamoxifen in medium 0 µM) | drug sensitivity score (T-47D [2]; 4-OH-tamoxifen in medium 1 µM) | drug sensitivity score (T-47D Tam1 [3]) | drug sensitivity score (BT-474 Tam1 [4]) | drug sensitivity score (BT-474 [5]; 4-OH-tamoxifen in medium 0 µM) | drug sensitivity score (BT-474 [5]; 4-OH-tamoxifen in medium 1 µM) | drug sensitivity score (MCF-7 Tam1 [6]) | drug sensitivity score (MCF-7 [7]; 4-OH-tamoxifen in medium 0 µM) | drug sensitivity score (MCF-7 [7]; 4-OH-tamoxifen in medium 1 µM) | drug sensitivity score (BT-474 Tam2 [8]) | drug sensitivity score (ZR-75-1 Tam1 [9]) | drug sensitivity score (ZR-75-1 [10]; 4-OH-tamoxifen in medium 0 µM) | drug sensitivity score (ZR-75-1 [10]; 4-OH-tamoxifen in medium 1 µM) | drug sensitivity score (ZR-75-1 Tam2 [11]) | relative IC50 (ZR-75-1 Tam1 [20]) | relative IC50 (ZR-75-1 [21]; 4-OH-tamoxifen in medium 0 µM) | relative IC50 (ZR-75-1 [21]; 4-OH-tamoxifen in medium 1 µM) | relative IC50 (ZR-75-1 Tam2 [22])
> 10000 nM | > 10000 nM |  | > 10000 nM | > 10000 nM | > 10000 nM | > 10000 nM | > 10000 nM | > 10000 nM | > 10000 nM | > 10000 nM | O=C1CCC(N2C(=O)c3ccccc3C2=O)C(=O)N1 (stereo unspecified) [Thalidomide] | 0 | 0 | 0 | 0 | 0 | 0 | 0 | 0 | 0 | 0 | 0 | 0 | 0 | 0.0754 | 0 | > 10000 nM | > 10000 nM |  | > 10000 nM
855 nM | 598 nM | 864 nM | 736 nM | 588 nM | 467 nM | 525 nM | 486 nM | 198 nM | 355 nM | 409 nM | CN[C@@H]1C[C@H]2O[C@@](C)([C@@H]1OC)n1c3ccccc3c3c4c(c5c6ccccc6n2c5c31)C(=O)N[C@H]4O [UCN-01] | 8.25 | 9.64 | 8.4 | 10.2 | 13.4 | 10.8 | 13.3 | 14.3 | 17.1 | 15.8 | 15.6 | 8.97 | 9.37 | 6.62 | 9.41 | 615 nM | 437 nM | 1010 nM | 686 nM
811 nM | 47.5 nM | 299 nM | 526 nM | 218 nM | 71.1 nM | 171 nM | 57 nM | 2.65 nM | 49.6 nM | 337 nM | COCC[n+]1c2c(n(Cc3cnccn3)c1C)C(=O)c1ccccc1C2=O [YM155] | 11.4 | 27.1 | 17.6 | 14.2 | 19.6 | 25.6 | 20.9 | 25.8 | 43 | 26.5 | 16.6 | 15.3 | 28.5 | 19 | 16.2 | 454 nM | 36.5 nM | 202 nM | 358 nM
